Holding throughout (experiment): Kinase profiling screen (radioactive filter-binding assay)
Format in all cases: biochemical

Experiment [1] has as its target MAPKAP-K3 (Homo sapiens, UniProt Q16644). As to conditions: 100 μM compound, 20 μM ATP; read-out: Kinase activity, % of activity in the absence of inhibitor. As to the method: (§1) Profiling of 117 protein kinases with CoA, dpCoA and ADP was carried out at the International Centre for Protein Kinase Profiling at the University of Dundee. Each compound was tested in vitro, in duplicate, at 100 μM final concentration using recombinant kinases, model substrates and optimal concentrations of ATP. Bacterially expressed full-length His-Aurora A was used to determine the IC50 value for CoA (in the presence or absence of DTT), dpCoA, ADP and desulfo-CoA. The assay was performed in the presence of 5 μM competing ATP. To examine whether the inhibitory effect of CoA on Aurora A is modulated by TPX2, IC50 values for CoA were also generated in the presence and absence of 1 μg TPX2 (residues 1–43) fragment.

In experiment [2] the target is Src (Homo sapiens, UniProt P12931). The note with it: for activity at 100 µM: 100 μM compound, 50 μM ATP, read-out: Kinase activity, % of activity in the absence of inhibitor. As to the method: as §1
The target of experiment [3] is JNK2 (Homo sapiens, UniProt P45984). The note with it: 100 μM compound, 20 μM ATP; read-out: Kinase activity, % of activity in the absence of inhibitor. As to the method:
as §1

Experiment [4] deals with PAK4 (Homo sapiens, UniProt O96013). As to conditions: 100 μM compound, 5 μM ATP; read-out: Kinase activity, % of activity in the absence of inhibitor. As to the method: as §1
For experiment [5], the target named is T1, TAO1 (Homo sapiens, UniProt Q7L7X3).
T1 sequence (Q7L7X3 1-1001): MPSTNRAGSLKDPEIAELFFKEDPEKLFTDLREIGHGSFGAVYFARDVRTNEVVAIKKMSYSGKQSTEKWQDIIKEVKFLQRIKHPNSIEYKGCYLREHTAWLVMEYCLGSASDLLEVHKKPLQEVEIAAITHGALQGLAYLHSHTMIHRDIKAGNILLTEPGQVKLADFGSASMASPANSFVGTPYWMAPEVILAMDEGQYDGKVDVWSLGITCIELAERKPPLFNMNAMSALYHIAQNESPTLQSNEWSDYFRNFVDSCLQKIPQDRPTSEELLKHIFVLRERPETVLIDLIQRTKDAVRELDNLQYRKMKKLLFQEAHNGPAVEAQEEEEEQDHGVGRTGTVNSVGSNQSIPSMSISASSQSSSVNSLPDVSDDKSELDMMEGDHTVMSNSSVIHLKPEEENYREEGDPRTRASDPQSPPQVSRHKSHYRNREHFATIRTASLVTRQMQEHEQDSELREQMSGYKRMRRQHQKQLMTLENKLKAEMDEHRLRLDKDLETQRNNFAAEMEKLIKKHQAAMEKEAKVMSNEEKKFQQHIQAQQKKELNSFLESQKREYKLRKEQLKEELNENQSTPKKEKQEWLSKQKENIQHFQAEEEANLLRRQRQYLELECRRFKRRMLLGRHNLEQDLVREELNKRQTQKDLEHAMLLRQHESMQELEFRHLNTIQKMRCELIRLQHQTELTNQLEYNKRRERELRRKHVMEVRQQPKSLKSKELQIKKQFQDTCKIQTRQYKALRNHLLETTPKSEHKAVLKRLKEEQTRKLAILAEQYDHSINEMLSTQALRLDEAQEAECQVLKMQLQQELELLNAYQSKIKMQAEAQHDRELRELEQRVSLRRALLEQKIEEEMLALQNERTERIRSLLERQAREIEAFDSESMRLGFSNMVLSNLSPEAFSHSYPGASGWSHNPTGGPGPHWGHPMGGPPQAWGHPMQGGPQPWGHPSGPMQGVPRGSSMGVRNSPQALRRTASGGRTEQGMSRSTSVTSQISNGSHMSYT
The note with it: 100 μM compound, 20 μM ATP; read-out: Kinase activity, % of activity in the absence of inhibitor. As to the method:
as §1

Experiment [6] has as its target YES1 (Homo sapiens, UniProt P07947). The note with it: for activity at 100 µM: 100 μM compound, 20 μM ATP, read-out: Kinase activity, % of activity in the absence of inhibitor. As to the method: as §1
The target of experiment [7] is PAK5 (Homo sapiens, UniProt Q9P286). The note with it: 100 μM compound, 20 μM ATP; read-out: Kinase activity, % of activity in the absence of inhibitor. As to the method: as §1
The target of experiment [8] is HER4 (Homo sapiens, UniProt Q15303). As to conditions: 100 μM compound, 5 μM ATP; read-out: Kinase activity, % of activity in the absence of inhibitor. As to the method: as §1
Experiment [9] concerns the target CLK2 (Homo sapiens, UniProt P49760). The note with it: 100 μM compound, 5 μM ATP; read-out: Kinase activity, % of activity in the absence of inhibitor. As to the method:
as §1

Experiment [10] addresses MKK1 (Homo sapiens, UniProt Q02750). As to conditions: 100 μM compound, 5 μM ATP; read-out: Kinase activity, % of activity in the absence of inhibitor. As to the method: as §1
For experiment [11], the target named is PIM2 (Homo sapiens, UniProt Q9P1W9). As to conditions: 100 μM compound, 5 μM ATP; read-out: Kinase activity, % of activity in the absence of inhibitor. As to the method:
as §1

The target of experiment [12] is BRK (Homo sapiens, UniProt Q13882). As to conditions: 100 μM compound, 20 μM ATP; read-out: Kinase activity, % of activity in the absence of inhibitor. As to the method: as §1
The target of experiment [13] is T2, PKCζ (Homo sapiens, UniProt Q05513).
T2 sequence (Q05513 1-592): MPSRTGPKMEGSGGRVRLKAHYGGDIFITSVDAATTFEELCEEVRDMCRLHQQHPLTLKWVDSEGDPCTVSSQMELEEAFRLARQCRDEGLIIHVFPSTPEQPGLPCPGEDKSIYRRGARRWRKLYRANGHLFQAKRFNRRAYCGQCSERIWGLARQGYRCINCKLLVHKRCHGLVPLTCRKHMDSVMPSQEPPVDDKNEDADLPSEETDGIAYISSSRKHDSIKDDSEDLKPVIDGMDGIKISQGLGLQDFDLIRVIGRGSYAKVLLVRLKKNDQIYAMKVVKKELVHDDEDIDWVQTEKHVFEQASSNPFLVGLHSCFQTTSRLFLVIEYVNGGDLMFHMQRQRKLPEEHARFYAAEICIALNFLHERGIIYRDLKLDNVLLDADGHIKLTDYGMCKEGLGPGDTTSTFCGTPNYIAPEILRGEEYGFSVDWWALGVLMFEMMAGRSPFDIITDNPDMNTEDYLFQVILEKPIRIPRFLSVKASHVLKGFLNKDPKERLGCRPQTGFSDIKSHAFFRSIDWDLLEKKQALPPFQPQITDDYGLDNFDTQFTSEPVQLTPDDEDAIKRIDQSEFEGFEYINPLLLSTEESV
As to conditions: 100 μM compound, 5 μM ATP; read-out: Kinase activity, % of activity in the absence of inhibitor. As to the method:
as §1

Experiment [14] deals with FGF-R1 (Homo sapiens, UniProt P11362). The note with it: for activity at 100 µM: 100 μM compound, 20 μM ATP, read-out: Kinase activity, % of activity in the absence of inhibitor. As to the method:
as §1

Experiment [15] has as its target JNK1 (Homo sapiens, UniProt P45983). The note with it: 100 μM compound, 20 μM ATP; read-out: Kinase activity, % of activity in the absence of inhibitor. As to the method:
as §1

Some results are limits rather than exact numbers.

Sequence of MAPKAP-K3 (Q16644 whole entry, the tested form may be a part): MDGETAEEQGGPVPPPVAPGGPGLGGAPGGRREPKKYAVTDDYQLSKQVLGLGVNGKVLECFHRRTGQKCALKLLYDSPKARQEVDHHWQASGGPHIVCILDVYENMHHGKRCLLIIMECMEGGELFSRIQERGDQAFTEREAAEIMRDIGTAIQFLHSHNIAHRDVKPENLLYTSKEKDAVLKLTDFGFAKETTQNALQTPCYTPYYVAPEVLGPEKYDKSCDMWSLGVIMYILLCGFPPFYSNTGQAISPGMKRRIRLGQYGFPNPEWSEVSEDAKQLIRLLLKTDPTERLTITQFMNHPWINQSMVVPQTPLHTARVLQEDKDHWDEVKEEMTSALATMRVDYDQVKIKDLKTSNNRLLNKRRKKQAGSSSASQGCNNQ
Sequence of CLK2 (P49760 whole entry): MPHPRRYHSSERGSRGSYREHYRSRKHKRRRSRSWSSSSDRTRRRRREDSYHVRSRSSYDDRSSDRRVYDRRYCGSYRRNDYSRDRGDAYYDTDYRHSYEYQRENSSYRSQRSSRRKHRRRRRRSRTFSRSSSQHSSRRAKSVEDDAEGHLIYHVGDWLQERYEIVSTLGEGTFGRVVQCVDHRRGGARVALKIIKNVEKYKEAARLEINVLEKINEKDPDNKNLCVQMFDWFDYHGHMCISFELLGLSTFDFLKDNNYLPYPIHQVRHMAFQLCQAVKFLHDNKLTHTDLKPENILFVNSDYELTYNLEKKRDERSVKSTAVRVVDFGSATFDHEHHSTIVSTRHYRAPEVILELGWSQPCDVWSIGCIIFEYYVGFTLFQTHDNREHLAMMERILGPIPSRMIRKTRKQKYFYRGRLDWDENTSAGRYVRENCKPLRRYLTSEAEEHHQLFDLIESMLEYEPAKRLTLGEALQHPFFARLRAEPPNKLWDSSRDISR
Sequence of Src (P12931 whole entry): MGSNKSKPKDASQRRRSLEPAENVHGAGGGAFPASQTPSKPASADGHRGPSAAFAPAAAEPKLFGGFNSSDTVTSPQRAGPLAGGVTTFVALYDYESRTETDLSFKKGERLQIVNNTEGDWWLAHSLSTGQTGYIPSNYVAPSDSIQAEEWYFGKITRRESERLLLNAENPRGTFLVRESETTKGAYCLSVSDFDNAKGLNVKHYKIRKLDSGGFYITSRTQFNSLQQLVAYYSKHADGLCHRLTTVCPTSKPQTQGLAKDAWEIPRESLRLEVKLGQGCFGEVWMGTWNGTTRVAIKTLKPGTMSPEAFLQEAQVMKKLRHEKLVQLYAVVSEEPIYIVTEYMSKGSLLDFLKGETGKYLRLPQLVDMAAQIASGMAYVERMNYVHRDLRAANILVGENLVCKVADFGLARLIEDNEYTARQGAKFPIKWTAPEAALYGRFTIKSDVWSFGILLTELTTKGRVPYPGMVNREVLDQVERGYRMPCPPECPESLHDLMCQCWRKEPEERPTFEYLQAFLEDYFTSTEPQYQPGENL
Sequence of JNK1 (P45983 whole entry): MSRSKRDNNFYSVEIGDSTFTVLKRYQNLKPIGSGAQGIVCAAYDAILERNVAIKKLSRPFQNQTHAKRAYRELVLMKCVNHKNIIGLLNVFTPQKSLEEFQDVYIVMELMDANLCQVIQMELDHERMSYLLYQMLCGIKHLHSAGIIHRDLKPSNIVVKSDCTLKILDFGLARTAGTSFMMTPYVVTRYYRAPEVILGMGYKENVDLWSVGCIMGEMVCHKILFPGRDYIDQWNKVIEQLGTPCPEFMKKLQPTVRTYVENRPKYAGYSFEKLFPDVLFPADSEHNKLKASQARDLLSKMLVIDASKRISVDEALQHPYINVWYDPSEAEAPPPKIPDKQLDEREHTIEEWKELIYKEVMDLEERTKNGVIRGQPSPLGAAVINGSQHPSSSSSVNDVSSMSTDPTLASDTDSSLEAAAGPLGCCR
Sequence of PAK4 (O96013 whole entry): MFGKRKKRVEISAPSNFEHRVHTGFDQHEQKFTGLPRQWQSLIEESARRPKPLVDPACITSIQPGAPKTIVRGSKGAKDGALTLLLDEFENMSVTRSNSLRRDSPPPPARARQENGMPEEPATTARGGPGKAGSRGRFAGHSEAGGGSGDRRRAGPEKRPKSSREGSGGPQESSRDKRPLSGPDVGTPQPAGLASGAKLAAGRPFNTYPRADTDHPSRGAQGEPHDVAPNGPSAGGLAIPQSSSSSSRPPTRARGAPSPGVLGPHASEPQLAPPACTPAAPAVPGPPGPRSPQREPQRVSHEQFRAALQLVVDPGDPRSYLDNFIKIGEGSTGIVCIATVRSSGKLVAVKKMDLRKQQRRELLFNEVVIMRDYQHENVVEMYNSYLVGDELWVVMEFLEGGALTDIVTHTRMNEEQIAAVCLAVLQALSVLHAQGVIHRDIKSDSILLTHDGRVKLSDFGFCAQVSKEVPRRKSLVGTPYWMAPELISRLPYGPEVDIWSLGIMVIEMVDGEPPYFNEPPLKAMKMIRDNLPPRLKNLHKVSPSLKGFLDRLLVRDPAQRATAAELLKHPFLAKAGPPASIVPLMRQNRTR
Sequence of MKK1 (Q02750 whole entry): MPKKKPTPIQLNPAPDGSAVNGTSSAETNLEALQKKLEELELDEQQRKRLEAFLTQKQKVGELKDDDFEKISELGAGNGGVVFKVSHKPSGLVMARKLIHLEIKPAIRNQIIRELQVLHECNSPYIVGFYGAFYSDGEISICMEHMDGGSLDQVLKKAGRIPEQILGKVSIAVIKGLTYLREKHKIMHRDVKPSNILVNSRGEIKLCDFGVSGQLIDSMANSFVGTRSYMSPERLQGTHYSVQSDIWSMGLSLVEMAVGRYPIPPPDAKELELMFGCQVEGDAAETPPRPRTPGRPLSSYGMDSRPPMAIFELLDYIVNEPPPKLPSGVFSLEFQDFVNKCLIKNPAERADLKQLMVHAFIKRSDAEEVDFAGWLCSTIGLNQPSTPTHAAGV
Sequence of BRK (Q13882 whole entry): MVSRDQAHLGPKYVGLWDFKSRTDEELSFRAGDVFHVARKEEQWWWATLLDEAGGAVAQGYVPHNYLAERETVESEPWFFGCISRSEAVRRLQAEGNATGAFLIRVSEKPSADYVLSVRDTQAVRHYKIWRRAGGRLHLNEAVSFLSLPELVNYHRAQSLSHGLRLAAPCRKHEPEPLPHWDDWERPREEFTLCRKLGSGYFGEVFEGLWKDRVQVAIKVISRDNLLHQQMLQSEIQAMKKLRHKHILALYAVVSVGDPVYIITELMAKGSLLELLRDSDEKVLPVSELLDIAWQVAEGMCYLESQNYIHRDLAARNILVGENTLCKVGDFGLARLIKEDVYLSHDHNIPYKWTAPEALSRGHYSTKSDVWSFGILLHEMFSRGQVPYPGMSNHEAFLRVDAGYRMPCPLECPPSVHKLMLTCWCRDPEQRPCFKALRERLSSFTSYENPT
Sequence of JNK2 (P45984 whole entry): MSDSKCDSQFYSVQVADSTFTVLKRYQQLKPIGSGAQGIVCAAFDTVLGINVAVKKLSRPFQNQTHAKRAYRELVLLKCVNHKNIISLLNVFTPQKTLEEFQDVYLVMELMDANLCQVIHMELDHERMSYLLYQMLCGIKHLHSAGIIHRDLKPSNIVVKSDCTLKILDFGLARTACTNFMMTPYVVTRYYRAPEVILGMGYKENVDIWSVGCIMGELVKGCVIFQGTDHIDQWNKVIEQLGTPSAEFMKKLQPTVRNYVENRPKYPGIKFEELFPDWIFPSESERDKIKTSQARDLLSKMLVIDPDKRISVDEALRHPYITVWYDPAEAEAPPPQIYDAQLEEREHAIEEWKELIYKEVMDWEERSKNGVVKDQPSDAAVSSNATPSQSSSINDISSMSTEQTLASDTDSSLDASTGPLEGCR
Sequence of YES1 (P07947 whole entry): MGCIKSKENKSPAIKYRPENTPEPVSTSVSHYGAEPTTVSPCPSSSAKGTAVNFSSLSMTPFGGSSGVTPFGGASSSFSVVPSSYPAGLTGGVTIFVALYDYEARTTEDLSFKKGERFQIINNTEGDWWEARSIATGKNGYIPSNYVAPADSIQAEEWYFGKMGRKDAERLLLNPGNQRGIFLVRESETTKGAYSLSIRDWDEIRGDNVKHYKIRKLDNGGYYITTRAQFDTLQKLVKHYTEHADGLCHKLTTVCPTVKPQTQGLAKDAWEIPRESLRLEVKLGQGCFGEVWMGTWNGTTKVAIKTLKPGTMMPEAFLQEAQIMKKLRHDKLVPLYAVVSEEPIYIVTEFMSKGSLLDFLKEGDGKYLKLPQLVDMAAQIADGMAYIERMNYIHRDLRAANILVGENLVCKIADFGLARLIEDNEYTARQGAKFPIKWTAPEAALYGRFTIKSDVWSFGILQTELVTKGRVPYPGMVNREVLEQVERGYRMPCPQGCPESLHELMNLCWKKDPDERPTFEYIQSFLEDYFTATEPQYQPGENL
Sequence of PIM2 (Q9P1W9 whole entry): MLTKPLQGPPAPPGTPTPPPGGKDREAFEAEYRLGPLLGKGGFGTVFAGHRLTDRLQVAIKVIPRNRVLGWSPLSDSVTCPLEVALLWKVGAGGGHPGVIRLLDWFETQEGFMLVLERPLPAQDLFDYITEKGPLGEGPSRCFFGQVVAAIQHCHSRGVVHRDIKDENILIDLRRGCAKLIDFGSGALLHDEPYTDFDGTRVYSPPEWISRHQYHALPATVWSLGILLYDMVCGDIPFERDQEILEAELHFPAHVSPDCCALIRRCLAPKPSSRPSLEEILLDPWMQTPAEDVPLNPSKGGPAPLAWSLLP

Take `Nc1ncnc2c1ncn2C1OC(COP(=O)(O)OP(=O)(O)O)C(O)C1O` (centres unmarked) [ADP]: the activity at 100 µM in [1] was determined as 25.7%; in [2] it was 31.8%; in experiment [3], 57.3%; in experiment [4] it was 73.8%; in [5], 34%; in [6], 18.6%. The activity at 100 µM in experiment [7] amounted to 79.5%; in experiment [8], 29.1%; in [9], 33.9%; in experiment [10], 16.4%; in experiment [11] it was 9.8%; in experiment [12], 41.3%. Moreover, the activity at 100 µM in experiment [13] was 37.7%; in experiment [14], 41.7%; in experiment [15], 53.9%.
By inhibition is commonly meant how much of the control response was suppressed. In the case of `CC(C)(COP(=O)(O)OP(=O)(O)OC[C@H]1O[C@@H](n2cnc3c(N)ncnc32)[C@H](O)[C@@H]1OP(=O)(O)O)[C@@H](O)C(=O)NCCC(=O)NCCS` [CoA, Coenzyme A], the activity at 100 µM was 98.4% in [1]; 43.8% in [2]; 93.9% in [3]; 69.9% in experiment [4]; 113% in [5]; 49% in experiment [6]. The activity at 100 µM in experiment [7] was 70.6%; in [8], 100%; in experiment [9] it was 109%; in experiment [10], 107%; in experiment [11], 111%; in [12] it was 114%. Further, the activity at 100 µM in experiment [13] was determined as 99.3%; in experiment [14], 60%; in experiment [15], 85.4%. Moreover, the inhibition at 100 µM was at most 50% in experiment [2] (100 μM CoA, kinase profiling screen) and at most 50% in experiment [6] (100 μM CoA, kinase profiling screen, read-out: YES inhibition). Also, the “SRC inhibition (in words)” value in experiment [2] (kinase profiling, 100 μM) was “modestly inhibited”. Besides, in experiment [6] (kinase profiling, 100 μM), the “YES inhibition (in words)” value is “modestly inhibited”. Moreover, in [14] (kinase profiling, 100 μM), the “FGFR1 inhibition (in words)” value is on record as “modestly inhibited”.
As to `CC(C)(COP(=O)(O)OP(=O)(O)OCC1OC(n2cnc3c(N)ncnc32)C(O)C1O)C(O)C(=O)NCCC(=O)NCCS` (centres unmarked) [dpCoA, dephospho-CoA], the activity at 100 µM in experiment [1] was found to be 63%; in experiment [2], 8.9%; in experiment [3] it was 76.1%; in experiment [4] it was 75.9%; in [5] it was 98.3%; in experiment [6], 11.5%. The activity at 100 µM in experiment [7] is 86%; in [8], 75.7%; in experiment [9], 80.1%; in experiment [10] it was 52.3%; in experiment [11], 62.9%; in [12], 83.1%. For the same compound, the activity at 100 µM in experiment [13] was 89.9%; in experiment [14], 31.4%; in [15], 82.4%.

Source of the values: article PMC6812009, “Covalent Aurora A regulation by the metabolic integrator coenzyme A” (Redox Biology, 2019).
